From US20230346961A1, “GLP-1 AND GIP RECEPTOR CO-AGONISTS” (Novo Nordisk A/S, priority 2020, published 2023)
Starred links: 1 amine or outer side, 2 acyl side, 3 side chain; linkers in the order of their positions; H or OH if unused. Non-standard residues stand in square brackets, D forms with d. Residues, ends and D or L forms follow the SMILES beside them. Groups on a side chain read outwards from the residue. *: point of attachment. C20 diacid = O=C(O)CCCCCCCCCCCCCCCCCCC(=O)*; γGlu = O=C(O)[C@H](CCC(=O)[*:2])N[*:1]; εLys = N[C@@H](CCCCN[*:1])C(=O)[*:2]; Trx = NC[C@H]1CC[C@H](C(=O)O)CC1; AEEA = NCCOCCOCC(=O)O; Aib = CC(C)(N)C(=O)O

What was measured:
human glucagon receptor = human glucagon receptor (Homo sapiens, UniProt P47871); assay: cell-based
human glucagon receptor, sequence (P47871 26-477): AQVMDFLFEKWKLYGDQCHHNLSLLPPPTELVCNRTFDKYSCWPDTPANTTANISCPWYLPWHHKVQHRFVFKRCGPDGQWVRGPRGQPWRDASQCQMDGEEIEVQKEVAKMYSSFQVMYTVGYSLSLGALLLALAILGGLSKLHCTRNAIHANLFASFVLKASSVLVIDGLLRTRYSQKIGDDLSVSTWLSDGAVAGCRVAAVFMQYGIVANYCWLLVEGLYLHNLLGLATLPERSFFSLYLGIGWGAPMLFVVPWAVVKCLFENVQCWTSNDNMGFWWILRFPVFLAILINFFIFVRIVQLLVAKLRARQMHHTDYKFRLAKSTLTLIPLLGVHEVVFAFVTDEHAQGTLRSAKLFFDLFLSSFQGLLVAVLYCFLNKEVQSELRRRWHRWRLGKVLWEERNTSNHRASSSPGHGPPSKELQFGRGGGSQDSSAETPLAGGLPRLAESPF
Description: (§1) The in vitro functional potency is the measure of target receptor activation in a whole cell assay.
(§2) In vitro functional potency was determined by measuring the response of the target receptor in a reporter gene assay in individual cell lines. […] When the respective receptor is activated, it results in the production of cAMP, which in turn results in expression of the luciferase protein. When assay incubation is completed, luciferase substrate (luciferin) is added resulting in the enzymatic conversion of luciferin to oxyluciferin and producing bioluminescence. The luminescence is measured as the readout for the assay.
(§3) The cells lines used in these assays were BHK cells with BHKTS13 as a parent cell line. The cell lines were derived from a clone containing the CRE luciferase element and were established by further transfection with the respective receptor to obtain the relevant cell line.
(§4) The cells were cultured at 37° C. with 5% CO2 in Cell Culture Medium. They were aliquoted and stored in liquid nitrogen. The cells were kept in continuous culture and were seeded out the day before each assay.
(§5) GLP-1R and GcgR Cell Culture Medium consisted of DMEM medium with 10% FBS, 500 μg/mL G418, and 300 μg/mL hygromycin. GIPR Cell Culture Medium consisted of DMEM medium with 10% FBS, 400 μg/mL G418, and 300 μg/mL hygromycin. Assay Buffer consisted of DMEM w/o phenol red, 10 mM Hepes, 1×Glutamax, 1% ovalbumin, and 0.1% Pluronic F-68 with the addition of HSA at twice the final assay concentration.
(§6) • 1) Cells were plated at 5000 cells/well and incubated overnight in the assay plate. • 2) Cells were washed once in DPBS. • 3) Stocks of the test compounds and reference compounds in concentrations ranging from 100-300 μM were diluted 1:150 in Assay Buffer. Compounds were then diluted 1:10 in column 1 of a 96 deep well dilution plate and then carried across the row creating a 3.5 fold, 12 point dilution curve. • 4) Assay Buffer (50 μl aliquot) with or without HSA was added to each well in the assay plate. • 5) A 50 μl aliquot of compound or blank was transferred from the dilution plate to the assay plate containing the Assay Buffer with or without HSA. • 6) The assay plate was incubated for 3 h in a 5% CO2 incubator at 37° C. 7) The cells were washed once with DPBS. • 8) A 100 μl aliquot of DPBS was added to each well of the assay plate. • 9) A 100 μl aliquot of steadylite plus reagent (light sensitive) was added to each well of the assay plate. • 10) Each assay plate was covered with aluminum foil to protect it from light and shaken at 250 RPM for 30 min at room temperature. • 11) Each assay plate was read in a microtiter plate reader.
(§7) The data from the microtiter plate reader was first regressed in an Excel in order to calculate the x-axis, log scale concentrations based on the individual test compound's stock concentration and the dilutions of the assay. […] The software performs a non-linear regression (log(agonist) vs response). A minimum of two replicates was measured for each sample. The reported values are averages of the replicates.

human GLP-1 receptor = human GLP-1 receptor (Homo sapiens, UniProt P43220); assay: cell-based; conditions: hGLP-1R
human GLP-1 receptor, sequence (P43220 24-463): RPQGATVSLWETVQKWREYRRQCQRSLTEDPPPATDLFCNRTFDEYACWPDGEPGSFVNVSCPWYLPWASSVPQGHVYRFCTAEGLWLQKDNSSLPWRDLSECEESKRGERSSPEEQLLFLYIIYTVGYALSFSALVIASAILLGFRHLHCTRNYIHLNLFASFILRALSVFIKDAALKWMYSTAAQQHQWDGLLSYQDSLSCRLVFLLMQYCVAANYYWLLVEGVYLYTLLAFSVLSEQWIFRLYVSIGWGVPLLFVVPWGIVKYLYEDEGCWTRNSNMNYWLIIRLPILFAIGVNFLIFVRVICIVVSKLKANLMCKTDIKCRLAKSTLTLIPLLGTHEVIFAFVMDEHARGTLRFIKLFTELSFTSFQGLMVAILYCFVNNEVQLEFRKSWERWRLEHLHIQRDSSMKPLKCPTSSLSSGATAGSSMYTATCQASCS
Description: as §1, §2, §3, §4, §5, §6, §7

mouse GIP receptor = molecular target: T1, mouse GIP receptor (Mus musculus, UniProt Q0P543); assay: cell-based
T1 sequence (Q0P543 19-460): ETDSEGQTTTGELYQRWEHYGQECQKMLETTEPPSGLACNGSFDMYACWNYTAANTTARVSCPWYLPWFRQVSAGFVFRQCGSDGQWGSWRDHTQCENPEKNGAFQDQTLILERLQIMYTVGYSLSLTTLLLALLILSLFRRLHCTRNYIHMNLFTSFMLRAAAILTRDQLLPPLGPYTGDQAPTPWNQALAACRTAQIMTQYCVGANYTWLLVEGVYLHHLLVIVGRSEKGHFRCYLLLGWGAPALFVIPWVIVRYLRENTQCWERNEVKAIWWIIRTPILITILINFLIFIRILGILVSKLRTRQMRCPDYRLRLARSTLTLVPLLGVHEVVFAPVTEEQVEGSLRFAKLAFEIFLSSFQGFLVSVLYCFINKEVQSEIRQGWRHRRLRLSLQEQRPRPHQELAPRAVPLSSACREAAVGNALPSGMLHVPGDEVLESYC

mouse GLP-1 receptor = molecular target: T2, mouse GLP-1 receptor (Mus musculus, UniProt O35659)
T2 sequence (O35659 22-463): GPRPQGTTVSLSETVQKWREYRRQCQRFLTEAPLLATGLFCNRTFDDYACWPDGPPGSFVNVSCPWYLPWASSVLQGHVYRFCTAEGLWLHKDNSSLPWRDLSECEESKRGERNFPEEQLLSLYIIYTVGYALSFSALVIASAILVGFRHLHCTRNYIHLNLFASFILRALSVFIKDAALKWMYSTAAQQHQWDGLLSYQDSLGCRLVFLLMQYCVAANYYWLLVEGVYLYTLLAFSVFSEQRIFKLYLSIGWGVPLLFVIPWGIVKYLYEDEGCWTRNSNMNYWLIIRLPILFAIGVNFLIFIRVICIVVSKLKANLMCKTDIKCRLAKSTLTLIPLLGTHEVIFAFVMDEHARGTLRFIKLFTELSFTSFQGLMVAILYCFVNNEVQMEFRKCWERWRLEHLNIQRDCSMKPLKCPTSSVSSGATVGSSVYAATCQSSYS

## CC[C@H](C)[C@H](NC(=O)[C@H](CO)NC(=O)[C@H](Cc1ccc(O)cc1)NC(=O)[C@H](CC(=O)O)NC(=O)[C@H](CO)NC(=O)[C@@H](NC(=O)[C@H](Cc1ccccc1)NC(=O)[C@@H](NC(=O)CNC(=O)[C@H](CCC(=O)O)NC(=O)C(C)(C)NC(=O)[C@@H](N)Cc1ccc(O)cc1)[C@@H](C)O)[C@@H](C)O)C(=O)N[C@@H](Cc1ccc(O)cc1)C(=O)N[C@@H](CC(C)C)C(=O)N[C@@H](CC(=O)O)C(=O)N[C@@H](CCCCN)C(=O)N[C@@H](CCC(N)=O)C(=O)N[C@@H](C)C(=O)N[C@@H](C)C(=O)NC(C)(C)C(=O)N[C@@H](CCCCNC(=O)[C@@H](N)CCCCNC(=O)[C@@H](N)CCCCNC(=O)CC[C@H](NC(=O)CCCCCCCCCCCCCCCCCCC(=O)O)C(=O)O)C(=O)N[C@@H](Cc1ccccc1)C(=O)N[C@H](C(=O)N[C@@H](CC(N)=O)C(=O)N[C@@H](Cc1c[nH]c2ccccc12)C(=O)N[C@@H](CC(C)C)C(=O)N[C@@H](CC(C)C)C(=O)N[C@@H](C)C(=O)NCC(=O)NCC(=O)N1CCC[C@H]1C(=O)N[C@@H](CO)C(=O)N[C@@H](CO)C(=O)NCC(=O)N[C@@H](C)C(=O)N1CCC[C@H]1C(=O)N1CCC[C@H]1C(=O)N1CCC[C@H]1C(=O)N[C@@H](CO)C(N)=O)C(C)C [Compound 13] (H-Y[Aib]EGTFTSDYSIYLDKQAA[Aib]K([εLys-εLys-γGlu-C20 diacid])FVNWLLAGGPSSGAPPPS-NH2; N-terminus assumed)
Human glucagon receptor
  EC50: > 10 nM
Human GLP-1 receptor; CRE Luc 0% HSA EC50, 0% HSA
  EC50: 0.0124 nM
Human GLP-1 receptor; CRE Luc 1% HSA EC50, 1% HSA
  EC50: 0.103 nM
Mouse GIP receptor
  EC50: 0.057 nM
Mouse GLP-1 receptor
  EC50: 5.4 pM

## CC[C@H](C)[C@H](NC(=O)[C@H](CO)NC(=O)[C@H](Cc1ccc(O)cc1)NC(=O)[C@H](CC(=O)O)NC(=O)[C@H](CO)NC(=O)[C@@H](NC(=O)[C@H](Cc1ccccc1)NC(=O)[C@@H](NC(=O)CNC(=O)[C@H](CCC(=O)O)NC(=O)C(C)(C)NC(=O)[C@@H](N)Cc1ccc(O)cc1)[C@@H](C)O)[C@@H](C)O)C(=O)N[C@@H](Cc1ccc(O)cc1)C(=O)N[C@@H](CC(C)C)C(=O)N[C@@H](CC(=O)O)C(=O)N[C@@H](CCCCN)C(=O)N[C@@H](CCC(N)=O)C(=O)N[C@@H](C)C(=O)N[C@@H](C)C(=O)NC(C)(C)C(=O)N[C@@H](CCCCNC(=O)[C@@H](N)CCCCNC(=O)[C@@H](N)CCCCNC(=O)CC[C@H](NC(=O)[C@H]1CC[C@H](CNC(=O)CCCCCCCCCCCCCCCCCCC(=O)O)CC1)C(=O)O)C(=O)N[C@@H](Cc1ccccc1)C(=O)N[C@H](C(=O)N[C@@H](CC(N)=O)C(=O)N[C@@H](Cc1c[nH]c2ccccc12)C(=O)N[C@@H](CC(C)C)C(=O)N[C@@H](CC(C)C)C(=O)N[C@@H](C)C(=O)NCC(=O)NCC(=O)N1CCC[C@H]1C(=O)N[C@@H](CO)C(=O)N[C@@H](CO)C(=O)NCC(=O)N[C@@H](C)C(=O)N1CCC[C@H]1C(=O)N1CCC[C@H]1C(=O)N1CCC[C@H]1C(=O)N[C@@H](CO)C(N)=O)C(C)C [Compound 14] (H-Y[Aib]EGTFTSDYSIYLDKQAA[Aib]K([εLys-εLys-γGlu-Trx-C20 diacid])FVNWLLAGGPSSGAPPPS-NH2; N-terminus assumed)
Human glucagon receptor
  EC50: > 10 nM
Human GLP-1 receptor; CRE Luc 0% HSA EC50, 0% HSA
  EC50: 0.0114 nM
Human GLP-1 receptor; CRE Luc 1% HSA EC50, 1% HSA
  EC50: 0.377 nM
Mouse GIP receptor
  EC50: 0.0186 nM
Mouse GLP-1 receptor
  EC50: 6 pM

## CC[C@H](C)[C@H](NC(=O)[C@H](CO)NC(=O)[C@H](Cc1ccc(O)cc1)NC(=O)[C@H](CC(=O)O)NC(=O)[C@H](CO)NC(=O)[C@@H](NC(=O)[C@H](Cc1ccccc1)NC(=O)[C@@H](NC(=O)CNC(=O)[C@H](CCC(=O)O)NC(=O)C(C)(C)NC(=O)[C@@H](N)Cc1ccc(O)cc1)[C@@H](C)O)[C@@H](C)O)C(=O)N[C@@H](Cc1ccc(O)cc1)C(=O)N[C@@H](CC(C)C)C(=O)N[C@@H](CCC(=O)O)C(=O)N[C@@H](CCCCN)C(=O)N[C@@H](CCC(N)=O)C(=O)N[C@@H](C)C(=O)N[C@@H](C)C(=O)NC(C)(C)C(=O)N[C@@H](CCCCNC(=O)[C@@H](N)CCCCNC(=O)[C@@H](N)CCCCNC(=O)CC[C@H](NC(=O)[C@H]1CC[C@H](CNC(=O)CCCCCCCCCCCCCCCCCCC(=O)O)CC1)C(=O)O)C(=O)N[C@@H](Cc1ccccc1)C(=O)N[C@H](C(=O)N[C@@H](CC(N)=O)C(=O)N[C@@H](Cc1c[nH]c2ccccc12)C(=O)N[C@@H](CC(C)C)C(=O)N[C@@H](CC(C)C)C(=O)N[C@@H](C)C(=O)NCC(=O)NCC(=O)N1CCC[C@H]1C(=O)N[C@@H](CO)C(=O)N[C@@H](CO)C(=O)NCC(=O)N[C@@H](C)C(=O)N1CCC[C@H]1C(=O)N1CCC[C@H]1C(=O)N1CCC[C@H]1C(=O)N[C@@H](CO)C(N)=O)C(C)C [Compound 16] (H-Y[Aib]EGTFTSDYSIYLEKQAA[Aib]K([εLys-εLys-γGlu-Trx-C20 diacid])FVNWLLAGGPSSGAPPPS-NH2; N-terminus assumed)
Human glucagon receptor
  EC50: > 10 nM
Human GLP-1 receptor; CRE Luc 0% HSA EC50, 0% HSA
  EC50: 0.0061 nM
Human GLP-1 receptor; CRE Luc 1% HSA EC50, 1% HSA
  EC50: 0.202 nM
Mouse GIP receptor
  EC50: 0.0169 nM
Mouse GLP-1 receptor
  EC50: 3.5 pM

## CC[C@H](C)[C@H](NC(=O)[C@H](CO)NC(=O)[C@H](Cc1ccc(O)cc1)NC(=O)[C@H](CC(=O)O)NC(=O)[C@H](CO)NC(=O)[C@@H](NC(=O)[C@H](Cc1ccccc1)NC(=O)[C@@H](NC(=O)CNC(=O)[C@H](CCC(=O)O)NC(=O)C(C)(C)NC(=O)[C@@H](N)Cc1ccc(O)cc1)[C@@H](C)O)[C@@H](C)O)C(=O)N[C@@H](Cc1ccc(O)cc1)C(=O)N[C@@H](CC(C)C)C(=O)N[C@@H](CCC(=O)O)C(=O)N[C@@H](CCCCN)C(=O)N[C@@H](CCC(N)=O)C(=O)N[C@@H](C)C(=O)N[C@@H](C)C(=O)NC(C)(C)C(=O)N[C@@H](CCCCNC(=O)COCCOCCNC(=O)COCCOCCNC(=O)CC[C@H](NC(=O)[C@H]1CC[C@H](CNC(=O)CCCCCCCCCCCCCCCCCCC(=O)O)CC1)C(=O)O)C(=O)N[C@@H](Cc1ccccc1)C(=O)N[C@H](C(=O)N[C@@H](CC(N)=O)C(=O)N[C@@H](Cc1c[nH]c2ccccc12)C(=O)N[C@@H](CC(C)C)C(=O)N[C@@H](CC(C)C)C(=O)N[C@@H](C)C(=O)NCC(=O)NCC(=O)N1CCC[C@H]1C(=O)N[C@@H](CO)C(=O)N[C@@H](CO)C(=O)NCC(=O)N[C@@H](C)C(=O)N1CCC[C@H]1C(=O)N1CCC[C@H]1C(=O)N1CCC[C@H]1C(=O)N[C@@H](CO)C(N)=O)C(C)C [Compound 17] (H-Y[Aib]EGTFTSDYSIYLEKQAA[Aib]K([AEEA-AEEA-γGlu-Trx-C20 diacid])FVNWLLAGGPSSGAPPPS-NH2; N-terminus assumed)
Human glucagon receptor
  EC50: > 10 nM
Human GLP-1 receptor; CRE Luc 0% HSA EC50, 0% HSA
  EC50: 0.0041 nM
Human GLP-1 receptor; CRE Luc 1% HSA EC50, 1% HSA
  EC50: 0.229 nM
Mouse GIP receptor
  EC50: 0.0219 nM
Mouse GLP-1 receptor
  EC50: 2.3 pM

## CC[C@H](C)[C@H](NC(=O)[C@H](CO)NC(=O)[C@H](Cc1ccc(O)cc1)NC(=O)[C@H](CC(=O)O)NC(=O)[C@H](CO)NC(=O)[C@@H](NC(=O)[C@H](Cc1ccccc1)NC(=O)[C@@H](NC(=O)CNC(=O)[C@H](CCC(=O)O)NC(=O)C(C)(C)NC(=O)[C@@H](N)Cc1ccc(O)cc1)[C@@H](C)O)[C@@H](C)O)C(=O)N[C@@H](Cc1ccc(O)cc1)C(=O)N[C@@H](CC(C)C)C(=O)N[C@@H](CCC(=O)O)C(=O)N[C@@H](CCCCN)C(=O)N[C@@H](CCCCNC(=O)[C@@H](N)CCCCNC(=O)[C@@H](N)CCCCNC(=O)CC[C@H](NC(=O)[C@H]1CC[C@H](CNC(=O)CCCCCCCCCCCCCCCCCCC(=O)O)CC1)C(=O)O)C(=O)N[C@@H](C)C(=O)N[C@@H](C)C(=O)NC(C)(C)C(=O)N[C@@H](CCC(=O)O)C(=O)N[C@@H](Cc1ccccc1)C(=O)N[C@H](C(=O)N[C@@H](CCC(N)=O)C(=O)N[C@@H](Cc1c[nH]c2ccccc12)C(=O)N[C@@H](CC(C)C)C(=O)N[C@@H](CC(C)C)C(=O)N[C@@H](CCC(=O)O)C(=O)NCC(=O)NCC(=O)N1CCC[C@H]1C(=O)N[C@@H](CO)C(=O)N[C@@H](CO)C(=O)NCC(=O)N[C@@H](C)C(=O)N1CCC[C@H]1C(=O)N1CCC[C@H]1C(=O)N1CCC[C@H]1C(=O)N[C@@H](CO)C(N)=O)C(C)C [Compound 34] (H-Y[Aib]EGTFTSDYSIYLEKK([εLys-εLys-γGlu-Trx-C20 diacid])AA[Aib]EFVQWLLEGGPSSGAPPPS-NH2; N-terminus assumed)
Human GLP-1 receptor; CRE Luc 0% HSA EC50, 0% HSA
  EC50: 0.0032 nM
Human GLP-1 receptor; CRE Luc 1% HSA EC50, 1% HSA
  EC50: 0.379 nM
Mouse GIP receptor
  EC50: 0.0195 nM
Mouse GLP-1 receptor
  EC50: 1.8 pM
